Results: the Deep4Chem optical property database
Values joined by “and” are separate entries in the source; they are usually repeats but may differ in a detail not shown here. Identical values can stand only once.

Test: photoluminescence quantum yield (fraction); solvent given as SMILES

Nc1ccc(C#Cc2ccc3ccc4ccc(C#Cc5ccc(N)cc5)c5ccc2c3c45)cc1
photoluminescence quantum yield (in CCCCCC): 0.466
photoluminescence quantum yield (in CO): 0.199
photoluminescence quantum yield (in ClCCl): 0.646

c1ccc(-c2nc3sc4ccccc4c3s2)cc1
photoluminescence quantum yield (in CS(C)=O): 0.89

CC1=N/C(=C\c2cccc(N(C)C)c2)C(=O)N1CCO
photoluminescence quantum yield (in C1CCOC1): 0.12
photoluminescence quantum yield (in CC#N): 0.02
photoluminescence quantum yield (in CCCCCC): 0.43

c1ccc(-c2nc3c4ccccc4c4ccccc4c3n2-c2ccc(-c3nc4c5ccccc5c5ccccc5c4n3-c3ccccc3)cc2)cc1
photoluminescence quantum yield (in Cc1ccccc1): 0.82

CC1=CC(C)=[N+]2C1=C(c1ccc(I)cc1)c1c(C)cc(C)n1[B-]2(F)F
photoluminescence quantum yield (in ClC(Cl)Cl): 0.57

C/C=C/C=C/C1=NC(=C\c2ccc(O)cc2)/C(=O)N1C
photoluminescence quantum yield (in ClC(Cl)Cl): 0.01
photoluminescence quantum yield (in O): 0.0008

CCN(CC)c1ccc(-c2nc3cc(C(NC(=O)OC(C)(C)C)C(=O)OC)ccc3o2)c(O)c1 (stereo not given)
photoluminescence quantum yield (in CC1CCCCC1): 0.11
photoluminescence quantum yield (in CC#N): 0.43
photoluminescence quantum yield (in CO): 0.08

CCCCCCOc1cc(N(CC)CC)ccc1/C=C/C(=C(C#N)C#N)c1ccc(N(c2ccccc2)c2ccccc2)cc1
photoluminescence quantum yield (in ClCCl): 0.178

CCCCOC(=O)c1ccccc1-c1c2ccc(=[N+](CC)CC)cc-2oc2cc(N(CC)CC)ccc12
photoluminescence quantum yield (in CC#N): 0.36
photoluminescence quantum yield (in CCO): 0.71
photoluminescence quantum yield (in CN(C)C=O): 0.35
photoluminescence quantum yield (in O): 0.3

N#Cc1c(-n2c3ccccc3c3ccccc32)c(C#N)c(-n2c3ccccc3c3ccccc32)c(-n2c3ccccc3c3ccccc32)c1-n1c2ccccc2c2ccccc21
photoluminescence quantum yield (in Cc1ccccc1): 0.938 and 0.88
photoluminescence quantum yield (in c1ccc2c(c1)c1ccccc1n2-c1ccc(-c2ccc(-n3c4ccccc4c4ccccc43)cc2)cc1): 0.83

c1ccc(-c2nc(-c3ccccc3)nc(-c3ccc(-n4c5ccccc5c5c6oc7ccccc7c6ccc54)cc3)n2)cc1
photoluminescence quantum yield (in O=P(c1ccccc1)(c1ccccc1)c1ccccc1Oc1ccccc1P(=O)(c1ccccc1)c1ccccc1): 0.853

Cc1ccc(-n2c(-c3ccccc3[N-]S(=O)(=O)c3ccc(C)cc3)[nH+]c3c4ccccc4c4ccccc4c32)cc1
photoluminescence quantum yield (in Cc1ccccc1): 0.468

CC(C)(C)c1ccc(C(C)(C)C)c(N2C(=O)c3cccc4c(-c5ccc(-c6ccc(N(c7ccccc7)c7ccccc7)cc6)s5)ccc(c34)C2=O)c1
photoluminescence quantum yield (in Cc1ccccc1): 0.56

COc1ccc(/C=C/c2cc(/C=C/c3ccc(OC)cc3)nc(/C=C/c3ccc(N(c4ccccc4)c4ccccc4)cc3)n2)cc1
photoluminescence quantum yield (in ClCCl): 0.1

CC1(C)c2ccccc2N(c2ccc3c(c2)C2(c4cc(N5c6ccccc6C(C)(C)c6ccccc65)ccc4-3)c3ccccc3S(=O)(=O)c3ccccc32)c2ccccc21
photoluminescence quantum yield (in c1ccc2c(c1)c1ccccc1n2-c1ccc(N(c2ccc(-n3c4ccccc4c4ccccc43)cc2)c2ccc(-n3c4ccccc4c4ccccc43)cc2)cc1): 0.41

FC(F)(F)c1ccc(/C=C/c2nc3c(ccc4ccccc43)s2)cc1
photoluminescence quantum yield (in C1CCCCC1): 0.14
photoluminescence quantum yield (in CC#N): 0.14

N#Cc1ccc(-c2ccc3c(c2)c2cc(-c4ccc(C#N)cc4)ccc2c2c3nc(-c3ccc(N(c4ccccc4)c4ccccc4)cc3)n2-c2ccccc2)cc1
photoluminescence quantum yield (in C1CCOC1): 0.42
photoluminescence quantum yield (in CC#N): 0.23
photoluminescence quantum yield (in CCCCCC): 0.9
photoluminescence quantum yield (in CCOCC): 0.59

Cc1ccc(N2C(c3ccccc3N(C)C)=NC(c3ccccc3)C2c2ccccc2)cc1 (stereo not given)
photoluminescence quantum yield (in Cc1ccccc1): 0.275

COc1cc2c(cc1OC)C1=C[C@H](c3ccc(Cl)cc3)C3(C(C#N)=C(C#N)N1CC2)c1ccccc1-c1ccccc13
photoluminescence quantum yield (in ClCCl): 0.00044

CN(C)c1ccc(/C=C/C=C/c2nc3ccccc3o2)cc1
photoluminescence quantum yield (in CC#N): 0.0055
photoluminescence quantum yield (in CCCCCC): 0.0176
photoluminescence quantum yield (in CCCCO): 0.0045
photoluminescence quantum yield (in CCCO): 0.0045
photoluminescence quantum yield (in CCO): 0.0048
photoluminescence quantum yield (in CN(C)C=O): 0.007
photoluminescence quantum yield (in CO): 0.0045
photoluminescence quantum yield (in Cc1ccccc1): 0.0078
photoluminescence quantum yield (in ClCCl): 0.0048
photoluminescence quantum yield (in OCC(O)CO): 0.0359
photoluminescence quantum yield (in OCCO): 0.0088

Cc1cn(C)c(=O)nc1-n1cncn1
photoluminescence quantum yield (in O): 0.071

c1cc2ccc3ccc(OP4(Oc5ccc6ccc7cccc8ccc5c6c78)=NP(Oc5ccc6ccc7cccc8ccc5c6c78)(Oc5ccc6ccc7cccc8ccc5c6c78)=NP(Oc5ccc6ccc7cccc8ccc5c6c78)(Oc5ccc6ccc7cccc8ccc5c6c78)=N4)c4ccc(c1)c2c34
photoluminescence quantum yield (in ClCCl): 0.92

Cc1ccc(-n2c3ccc(-c4ccc(-c5nc6ccccc6n5-c5ccccc5)cc4)cc3c3cc(-c4ccc(-c5nc6ccccc6n5-c5ccccc5)cc4)ccc32)cc1
photoluminescence quantum yield (in Cc1ccccc1): 0.65

COc1ccc(-c2n[n+]3c(s2)N=C(c2ccccc2)O[B-]3(F)F)cc1
photoluminescence quantum yield (in Cc1ccccc1): 0.16

CCOC(=O)COc1ccc(/C=C/C2=C3c4ccccc4C(c4[nH]c(C)cc4C)=[N+]3[B-](F)(F)n3c(/C=C/c4ccc(OCC(=O)OCC)cc4)cc(C)c32)cc1
photoluminescence quantum yield (in C1CCOC1): 0.05
photoluminescence quantum yield (in CC#N): 0.009
photoluminescence quantum yield (in CCCCCC): 0.04
photoluminescence quantum yield (in CO): 0.002
photoluminescence quantum yield (in Cc1ccccc1): 0.009
photoluminescence quantum yield (in ClCCl): 0.012
